System: Spodoptera littoralis
Assay: Antifeedant activity against Spodoptera littoralis
Type: functional

`CC1(C)CC(=O)C[C@@]2(C)[C@H](c3ccsc3)C(=O)[C@H]3O[C@@]312` was tested, and the AFI was 24%.
For `CC1(C)CC(=O)C[C@@]2(C)[C@H](c3ccoc3)C(=O)[C@H]3O[C@@]312` (relative stereo), the AFI was 45%.

Source: ChEMBL document CHEMBL3045852, “Synthesis of limonoid CDE fragments related to limonin and nimbinim” (2010)
